Test results reported in patent US6608082B1, “Treatment of erectile dysfunction using isoquinoline compound melanocortin receptor ligands” (Lion Bioscience AG, priority 1998, dated 2003).
pIC50: −log10 of the molar value. Read-outs that look alike come from different tables or passages of the source. One block for each compound: values may come before it.

Target: T1, MCR-1 (Homo sapiens, UniProt Q01726)
T1 construct: expressed in transfected cells; host or cells: HEK 293
Experiment: Melanocortin receptor binding assay, competition with 125I-HP 467, HEK 293 cells expressing hMCR-1
Details: for % Disp. of 125I-HP 467 (first of duplicate) / % Disp. of 125I-HP 467 (second of duplicate): 10 μM isoquinoline compound; for % Disp. of 125I-HP 467 (first of duplicate): HEK 293 cells expressing MCR-1, duplicate 1; for % Disp. of 125I-HP 467 (second of duplicate): HEK 293 cells expressing MCR-1, duplicate 2; for pIC50: read-out: MC-1 IC50; for % Disp. MC-1 10 μM: displacement of 125I-HP 467 at 10 μM isoquinoline compound
Method: All cell culture media and reagents were obtained from GibcoBRL (Gaithersburg Md.), except for COSMIC CALF SERUM (HyClone; Logan Utah).
Cells were suspended in PBS, 10% COSMIC CALF SERUM and 1 mM CaCl2. Cell suspensions were prepared at a density of 2×10^4 cells/ml for HEK 293 cells expressing hMCR-3, hMCR-4 or hMCR-5, and 1×10^5 cells/ml for HEK 293 cells expressing hMCR-1. Suspensions were placed in a water bath and allowed to warm to 37° C. for 1 hr.
Binding assays were performed in a total volume of 250 μl for HEK 293 cells. […] To each tube was added 4×10^3 HEK 293 cells expressing hMCR-3, hMCR-4 or hMCR-5, or 2×10^4 cells expressing hMCR-1. Assays were incubated for 2.5 hr at 37° C.
GF/B filter plates were prepared by soaking for at least one hour in 5 mg/ml BSA and 10 mM CaCl2. Assays were filtered using a Brandel 96-well cell harvester (Brandel Inc.; Gaithersburg, Md.). The filters were washed four times with cold 50 mM Tris, pH 7.4, the filter plates were dehydrated for 2 hr and 35 μl of MICROSCINT was added to each well. Filter plates were counted using a Packard Topcount (Packard Instrument Co.) and data analyzed using GraphPad PRISM v2.0 (GraphPad Software Inc.; San Diego Calif.) and Microsoft EXCEL v5.0a (Microsoft Corp.; Redmond Wash.).
To assay isoquinoline compounds, binding assays were performed in duplicate in a 96 well format. […] A 0.2 ml aliquot of suspended cells was added to each well to give the cell numbers indicate above, and the cells were incubated at 37° C. for 2.5 hr. Cells were harvested on GF/B filter plates as described above and counted.

[1] = competition with 125I-HP 467, HEK 293 cells expressing MCR-1
[2] = inhibition of binding of 125I-HP 467, HEK 293 cells expressing MCR-1

T1 sequence (Q01726 whole entry): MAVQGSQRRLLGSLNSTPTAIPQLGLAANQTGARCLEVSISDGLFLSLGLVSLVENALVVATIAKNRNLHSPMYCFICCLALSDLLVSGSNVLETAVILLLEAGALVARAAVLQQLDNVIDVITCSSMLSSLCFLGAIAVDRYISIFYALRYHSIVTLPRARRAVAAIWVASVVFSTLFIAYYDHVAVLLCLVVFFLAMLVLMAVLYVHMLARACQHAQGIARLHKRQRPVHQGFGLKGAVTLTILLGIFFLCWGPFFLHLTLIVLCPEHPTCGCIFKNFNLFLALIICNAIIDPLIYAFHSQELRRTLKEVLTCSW

Structure (SMILES): NCC1c2ccccc2CN(CCCCC(CN)N2CCCC2)C1c1ccc(-c2ccccc2)cc1 (stereo not shown) [TRG 2411-31]
pIC50 [1]: 6.01

Structure (SMILES): NCCN1Cc2ccccc2C(CNC2CCCCC2)C1c1c(F)cccc1F (stereo not shown) [TRG 2405-11]
% Disp. MC-1 10 μM (first of duplicate): 45.1% | % Disp. MC-1 10 μM (second of duplicate): 27%

Structure (SMILES): NCC(CCCCN1Cc2ccccc2C(CN)C1c1ccc(-c2ccccc2)cc1)NCCc1ccccc1 (stereo not shown) [TRG 2411-25]
pIC50 [1]: 6.46

Structure (SMILES): CNC(CN)CN1Cc2ccccc2C(CNC2CCCCC2)C1c1ncc[nH]1 (stereo not shown) [TRG 2405-108]
% Disp. MC-1 10 μM (first of duplicate): 46% | % Disp. MC-1 10 μM (second of duplicate): 46.6%

Structure (SMILES): CCCCNc1ccc(C2C(CN)c3ccccc3CN2CCCC(CN)NCCN)cc1 (stereo not shown) [TRG 2409-229]
pIC50 [1]: 6.64

Structure (SMILES): CCCCNc1ccc(C2C(CNCCc3ccccc3)c3ccccc3CN2CCCC(CN)NC)cc1 (stereo not shown) [TRG 2411-189]
pIC50 [2]: 6.92

Structure (SMILES): CCNc1ccc(C2C(CN)c3ccccc3CN2CCCCC(CN)NCCNC)cc1 (stereo not shown) [TRG 2413-3]
pIC50 [2]: 5.81

Structure (SMILES): NC[C@@H](N)CCCN1Cc2ccccc2C(CNCCc2ccccc2)C1c1ccc(-c2ccccc2)cc1 (stereo partly shown) [TRG 2411-113]
pIC50 [1]: 6.30

Structure (SMILES): NCC(CCCCN1Cc2ccccc2C(CNCCc2ccccc2)C1c1ccc(-c2ccccc2)cc1)NCc1ccccc1 (stereo not shown) [TRG 2411-13]
pIC50 [1]: 5.87

Structure (SMILES): CCCOc1ccc(C2C(CNCCc3ccccc3)c3ccccc3CN2CCCCC(CN)NC)cc1 (stereo not shown) [TRG 2412-7]
pIC50 [2]: 6.38

Structure (SMILES): CCNc1ccc(C2C(CNC3CCCCC3)c3ccccc3CN2CCCCC(CN)NCc2ccc(OC)cc2)cc1 (stereo not shown) [TRG 2411-56]
pIC50 [1]: 6.89

Structure (SMILES): NCCN1Cc2ccccc2C(CNC2CCCCC2)C1c1ccc([N+](=O)[O-])c(O)c1 (stereo not shown) [TRG 2405-70]
% Disp. MC-1 10 μM (first of duplicate): 19.9% | % Disp. MC-1 10 μM (second of duplicate): 46.7%

Structure (SMILES): CNC(CN)CN1Cc2ccccc2C(CNC2CCCCC2)C1c1cccc(Br)c1 (stereo not shown) [TRG 2405-127]
% Disp. MC-1 10 μM (first of duplicate): 50.6% | % Disp. MC-1 10 μM (second of duplicate): 60.3%

Structure (SMILES): CNC(CN)CN1Cc2ccccc2C(CNC2CCCCC2)C1c1cccc(C(F)(F)F)c1 (stereo not shown) [TRG 2405-125]
% Disp. MC-1 10 μM (first of duplicate): 59.1% | % Disp. MC-1 10 μM (second of duplicate): 58.4%

Structure (SMILES): CCNC(CN)CCCCN1Cc2ccccc2C(CNC2CCCCC2)C1c1ccc(-c2ccccc2)cc1 (stereo not shown) [TRG 2411-14]
pIC50 [1]: 6.34

Structure (SMILES): CNC(CN)CN1Cc2ccccc2C(CNC2CCCCC2)C1c1ccc(Cl)c(Cl)c1 (stereo not shown) [TRG 2405-116]
% Disp. MC-1 10 μM (first of duplicate): 62.3% | % Disp. MC-1 10 μM (second of duplicate): 63%

More lines, now with the values ahead:

% Disp. of 125I-HP 467 (first of duplicate): 78.2% | % Disp. of 125I-HP 467 (second of duplicate): 74.6%
Structure (SMILES): CNC(CN)CCCCN1Cc2ccccc2C(CNC2CCCCC2)C1c1cccc(C)c1 (stereo not shown) [TRG 2405-227]

% Disp. of 125I-HP 467 (first of duplicate): 41.1% | % Disp. of 125I-HP 467 (second of duplicate): 33.7%
Structure (SMILES): CNC(CN)CCCCN1Cc2ccccc2C(CNC2CCCCC2)C1c1nccs1 (stereo not shown) [TRG 2405-270]

% Disp. of 125I-HP 467 (first of duplicate): 61.6% | % Disp. of 125I-HP 467 (second of duplicate): 65.3%
Structure (SMILES): CCn1c2ccccc2c2cc(C3C(CNC4CCCCC4)c4ccccc4CN3CCCCC(CN)NC)ccc21 (stereo not shown) [TRG 2405-263]

% Disp. of 125I-HP 467 (first of duplicate): 69.1% | % Disp. of 125I-HP 467 (second of duplicate): 64.6%
Structure (SMILES): CNC(CN)CCCCN1Cc2ccccc2C(CNC2CCCCC2)C1c1ccccc1F (stereo not shown) [TRG 2405-196]

% Disp. of 125I-HP 467 (first of duplicate): 65% | % Disp. of 125I-HP 467 (second of duplicate): 65.5%
Structure (SMILES): CNC(CN)CCCCN1Cc2ccccc2C(CNC2CCCCC2)C1c1ccc(F)c(F)c1 (mixture of isomers) [TRG 2405-207]

% Disp. MC-1 10 μM (first of duplicate): 45.6% | % Disp. MC-1 10 μM (second of duplicate): 51.1%
Structure (SMILES): CNC(CN)CN1Cc2ccccc2C(CNC2CCCCC2)C1c1cccc2ccccc12 (stereo not shown) [TRG 2405-95]

% Disp. of 125I-HP 467 (first of duplicate): 53.6% | % Disp. of 125I-HP 467 (second of duplicate): 42.8%
Structure (SMILES): CNC(CN)CCCCN1Cc2ccccc2C(CNC2CCCCC2)C1c1ccsc1 (mixture of isomers) [TRG 2405-233]

% Disp. of 125I-HP 467 (first of duplicate): 29.7% | % Disp. of 125I-HP 467 (second of duplicate): 22.5%
Structure (SMILES): CNC(CN)CCCCN1Cc2ccccc2C(CNC2CCCCC2)C1c1ccc(CN)cc1 (stereo not shown) [TRG 2405-244]

% Disp. of 125I-HP 467 (first of duplicate): 34.3% | % Disp. of 125I-HP 467 (second of duplicate): 39.3%
Structure (SMILES): CNC(CN)CCCCN1Cc2ccccc2C(CNC2CCCCC2)C1c1ccoc1 (stereo not shown) [TRG 2405-222]

pIC50 [2]: 6.77
Structure (SMILES): CCCCNc1ccc(C2C(CNC3CCCCC3)c3ccccc3CN2CCC[C@@H](CN)NC)cc1 (stereo partly shown) [TRG 2411-203]

% Disp. of 125I-HP 467 (first of duplicate): 63% | % Disp. of 125I-HP 467 (second of duplicate): 53.2%
Structure (SMILES): CNC(CN)CCCCN1Cc2ccccc2C(CNC2CCCCC2)C1c1ccc2ccccc2n1 (stereo not shown) [TRG 2405-202]
